Source: patent US20260130917A1, “ANTIVIRAL COMPOSITION FOR CORONAVIRUS OR INFLUENZA VIRUS, USING NATURAL PRODUCTS, AND USE THEREOF” (priority 2022, published 2026)

Tested on: SARS-CoV-2 variants: Ancestral (lineage A), Alpha (B.1.1.7), Beta (B.1.351), Gamma (P.1), Delta (B.1.617.2), Omicron (B.1.1.529)
Format: cell-based

CCCCCOc1cccc(/C=C/C23N=C(O)CCN2c2ccccc2C3(C)C)c1 (stereo not shown) [MolPort-005-980-235, 10,10-dimethyl-10a-[(1E)-2-[3-(pentyloxy)phenyl]ethenyl]-3H,4H,10H,10aH-pyrimido[1,2-a]indol-2-ol]
antiviral activity against SARS-CoV-2 variants: had antiviral activity against all verified SARS-CoV-2 variants, including Omicron, in a dose-dependent manner
